Experimental data reported in publication PMC12508063, “Chloroindazole based estrogen receptor β ligands with favorable pharmacokinetics promote functional remyelination and visual recovery” (Scientific Reports, 2025).
Several values for one entry are separate records, joined by “and”; a condition that tells them apart may be missing. Equal values may be shown once. Read-outs that look alike come from different tables or passages of the source.

Assays:
EAE mice [1] = assay: Rotarod motor performance in EAE; format: in vivo, mouse; conditions: 5 mg/kg SC
Description: EAE induction and treatment: EAE was induced in 8–10-week-old wild-type C57BL/6J mice using MOG₃₅-₅₅ peptide[11],[14],[23]–[25]. Mice were scored daily using a standard clinical scale (0–5) and tested for their ability to stay on a rotarod. […] At peak disease (18–22 days post-immunization), animals were grouped into EAE+Vehicle, EAE+K102, and EAE+K110.
Rotarod Motor Performance: Mice cages were moved to the behavioral room 1 hour prior to testing. Motor performance was assessed using the Rotarod apparatus (Med Associates, Inc., St. Albans, VT) as previously performed with modifications(5, 6). Briefly, mice were placed on the rotating horizontal rod set to a speed of 3 – 30 rpm for a maximum of 300 seconds. The amount of time the mouse was able to walk on the accelerating rod was recorded. Each mouse was tested in three trials separated by 15 minute intertrial intervals. The average of the three trials was reported as a single value for each mouse. Statistical analysis was performed in GraphPad Prism 10 software using Mann-Whitney test.

[2] = Stability in human plasma; format: in vitro ADME
[3] = for Kp uu Brain Mean / Kp uu Uterus Mean: 40 mg/kg PO; for K p,uu,brain Cmax: single dose oral PK in mouse at 40 mg/kg
Description: Plasma samples were 100% plasma or 5-fold diluted plasma; brain homogenate samples were diluted 5-fold with buffer, while uterus homogenate samples were initially diluted 5-fold and then further diluted to 20-fold. Equilibrium dialysis was performed in a 96-well plate system with wells containing 80 µL of buffer and 80 µL of the sample on opposite sides of the membrane. After incubation at 37°C for 5 hours with shaking at 180 rpm, aliquots were collected from both sides of the membrane for further analysis.
For plasma samples, 50 µL of sample was mixed with 50 µL of phosphate buffer, followed by addition of 300 µL quenching solution containing internal standards and DMSO. For 5-fold diluted plasma samples, 35 µL of sample was mixed with 35 µL of blank buffer, followed by 280 µL quenching solution. For tissue homogenate samples, 50 µL samples were mixed with 50 µL of phosphate buffer, followed by 200 µL quenching solution. All samples were vortexed for 1 minute, and centrifuged at 4,000 rpm for 15 minutes, and the supernatant collected for LC-MS/MS analysis, which was performed using an API 5500 mass spectrometer with an ACQUITY UPLC BEH 1.7 μm C18 100 Å column (2.1 mm * 50 mm) and ACE Excel 5 C4 (2.1 * 50 mm) column. Mobile phases were 0.1% formic acid in water or 5 mM NH4OAc with 0.05% formic acid in water (A) and 0.1% formic acid in acetonitrile (B). Run times were 8 minutes for plasma samples and 5 minutes for other sample types. The mass spectrometer was operated in positive electrospray ionization mode.
Free fraction (fu) and recovery were calculated using specific equations for each sample type. For plasma samples, fu (%) was calculated as (Cbuffer / Cplasma) * 100%, and recovery (%) as ((Cplasma + Cbuffer) / T0) * 100%. For 5-fold diluted plasma samples, fu,20% (%) was calculated as (Cbuffer / Cplasma) * 100%, and fu,100% (%) as fu,20% / (5 - 4 * fu,20%) * 100%. Similar equations were used for uterus and brain samples, accounting for their respective dilution factors. These calculations allowed for the determination of the free fraction of the test compound in various tissue compartments and the assessment of recovery rates.

[4] = system: CPZ demyelinating model of MS; assay: Cuprizone (CPZ) diet demyelination/remyelination model, corpus callosum IHC; conditions: for CC1 + OLs compared to RM + V / CD45 immunoreactivity compared to 12wkDM / GFAP expression / myelin (MBP, PLP, and MOG staining) compared to RM + V: corpus callosum, 5 mg/kg/day, 3 wk
Description: CPZ administration and treatment: Mice were fed a diet containing 0.2% bis(cyclohexanone)oxaldihydrazone (CPZ, Teklad Custom Diets, Madison, WI) for 12 weeks, as previously described[15],[27]. A subset of mice was perfused immediately following the 12-week CPZ regimen (12wkDM). […] These mice were perfused and their brains were processed for IHC.

[5] = system: splenocytes from EAE mice; assay: Splenocyte cytokine/chemokine analysis ex vivo (MOG35-55 stimulation); format: in vivo, mouse; conditions: K102 5 or 30 mg/kg, K110 10 or 30 mg/kg; 40 dpi
Description: Splenocyte Isolation and Cytokine Analysis: Spleens were collected from mice prior to transcardial perfusion, and splenocytes were isolated, counted, and resuspended in RPMI medium. After 1 h incubation, cells were stimulated with 25 µg/mL MOG₃₅-₅₅, and supernatants were collected 48 h later. Cytokine and chemokine levels in the supernatants, including pro- and anti-inflammatory markers as well as chemokines were analyzed by The Cytokine Core (Indianapolis, IN).
In MS and EAE, peripherally activated immune cells release inflammatory cytokines and chemokines, triggering demyelination and axonal damage. To examine how different concentrations of K102 (5 mg/kg or 30 mg/kg) (Fig. 4A) and K110 (10 mg/kg or 30 mg/kg) (Fig. 4B) influence the peripheral immune response, splenocytes were isolated from EAE mice at 40 dpi. These splenocytes were then stimulated ex vivo with MOG35-55 and analyzed for cytokine and chemokine expression.
Splenocyte Isolation and Cytokine Analysis: Spleens were removed from mice prior to transcardial perfusion. After isolation, splenocytes were counted and resuspended in RPMI. Following incubation, splenocytes were stimulated with 25 µg/ml MOG35–55 and supernatants were collected 48 hours later. Levels of the following cytokines and chemokines present in culture supernatants were sent to The Cytokine Core (Indianapolis, IN); pro-inflammatory cytokines: IFNγ, Tumor necrosis factor (TNF)α, IL-1α, IL-1β, IL-3, IL-6, IL9, IL17, Vascular endothelial growth factor (VEGF), CCL5/RANTES and macrophage colony-stimulating factor (M-CSF); anti-inflammatory cytokines: IL-5 and IL-10; chemokines: CXCL10, and CXCL1 were determined.

EAE mice [6] = assay: Electroretinogram (ERG) in EAE; format: in vivo, mouse; conditions: for ERG A-wave and B-wave amplitude: vs vehicle-treated mice
Description: (§1) Optical coherence tomography, electroretinograms and visual evoked potentials: OCT was acquired using the spectral domain‐OCT (R2200 840 nm HHP; Leica, Deerfield, IL) at peak EAE disease according to previously published methods[23],[28]. Each image was taken 3 times and averaged. Automatic segmentation of retinal layers was performed using Bioptigen Diver 3.0 software (Leica Microsystems, Deerfield, IL). ERG and VEPs were measured using the HMsERG200 ([…], Henderson, NV) as previously described[23],[28]. Animals were dark adapted for a minimum of 5 h prior to recording. During acquisition, animals were anesthetized with continuous 2% isoflurane. Traces were averaged and filtered for 60 Hz noise and a low-pass filter. MATLAB was used to adjust baselines and smoothed prior to measuring ERG and VEP amplitudes and latencies.
(§2) Electroretinograms and visual evoked potentials were measured using the HMsERG200 (OcuScience, Henderson, NV) as previously described (8, 9). Animals were dark adapted for a minimum of 5 hours prior to recording. During acquisition, animals were anesthetized with continuous 2% isoflurane. Traces were averaged and filtered for 60 Hz noise and a low-pass filter. MATLAB was used to adjust baselines and smoothed prior to measuring ERG and VEP amplitudes and latencies.

[7] = Uterine weight and body weight in EAE mice; conditions: for Body weight / Uterine weight / Uterine weight/body weight ratio: EAE mice; for uterine weight relative to body weight: normal or EAE intact female mice
Description: The animals from Hook EAE experiment Figure 3Bii were used. […] (S6ii) The weight of the uteri removed from mice relative to total body weight along with the raw uterine weight and body weight at the end of this experiment is plotted.

EAE mice [8] = assay: Visual evoked potential (VEP) in EAE; format: in vivo, mouse; conditions: vs vehicle-treated
Description: as §1, §2

[9] = system: co-cultures of primary cortical neurons and OPCs; assay: Axon myelination in co-cultures of primary cortical neurons and OPCs; format: cell-based, mouse; conditions: K102, K110 10 nM; Clemastine, Bazedoxifene 500 nM; 5 days
Description: Mouse and Human primary cell cultures: Primary OPC/OL culture were isolated from the cortices of postnatal day 0–1 C57BL/6J mice of both sexes, using established protocols[11],[20],[21]. Mouse OPC and Neuronal Co-cultures: Primary neuronal cultures were established in Neurobasal medium with B27 and plated on poly-L-lysine-coated coverslips. After 12 days, OPCs were isolated, counted, and added to neuronal cultures and media was replaced with neuronal and proliferation media for 3 days, then switched to maturation media that maintained both neurons and OLs. Human iPSC-derived OPCs (Tempo’s iOligo™) were expanded, cryopreserved, and later plated on Matrigel-coated coverslips. After 3 days in growth medium, cells were treated for 3 weeks with T3 containing maturation medium. Differentiation into myelin-producing OLs was assessed using O4 (OL surface marker on pre-OLs) and myelin basic protein (MBP) immunohistochemistry. […]
Immunocytochemistry and Image Analysis of cell cultures: After treatment, cells were fixed and stained for MBP and DAPI. […] Cell densities were quantified using ImageJ and normalized to control conditions. MBP-positive cells, their process extensions, and highly branched OLs were counted to assess differentiation. Co-culture images were analyzed for MBP and β3-tubulin colocalization using JACoP[22] in ImageJ, with results validated by manual quantification. […]

CYP3A4 = CYP3A4 (Homo sapiens, UniProt P08684); assay: CYP inhibition (midazolam and testosterone substrates); conditions: test compounds at 10 μM; for CYP Inhibition Percentage CYP3A4-M: substrate Midazolam
primary mouse OPCs = assay: OL differentiation in primary mouse OPC culture (MBP, DAPI); format: cell-based; conditions: for MBP+ OLs vs vehicle-treated wells: 10 nM; for number of MBP+ cells vs vehicle: 10 nM and 100 nM, concentration-dependent
Description: Mouse and Human primary cell cultures: Primary OPC/OL culture were isolated from the cortices of postnatal day 0–1 C57BL/6J mice of both sexes, using established protocols[11],[20],[21]. Mouse OPC and Neuronal Co-cultures: Primary neuronal cultures were established in Neurobasal medium with B27 and plated on poly-L-lysine-coated coverslips. After 12 days, OPCs were isolated, counted, and added to neuronal cultures and media was replaced with neuronal and proliferation media for 3 days, then switched to maturation media that maintained both neurons and OLs. Human iPSC-derived OPCs (Tempo’s iOligo™) were expanded, cryopreserved, and later plated on Matrigel-coated coverslips. After 3 days in growth medium, cells were treated for 3 weeks with T3 containing maturation medium. Differentiation into myelin-producing OLs was assessed using O4 (OL surface marker on pre-OLs) and myelin basic protein (MBP) immunohistochemistry. In all conditions compounds or vehicle were added to culture during differentiation for either 5 days (mouse) or 18 days (human).
Immunocytochemistry and Image Analysis of cell cultures: After treatment, cells were fixed and stained for MBP and DAPI. Coverslips were imaged using a confocal microscope at 10× and 40× objectives. Cell densities were quantified using ImageJ and normalized to control conditions. MBP-positive cells, their process extensions, and highly branched OLs were counted to assess differentiation. Co-culture images were analyzed for MBP and β3-tubulin colocalization using JACoP[22] in ImageJ, with results validated by manual quantification.
Primary OL Progenitor cells (OPC) and Neuronal Cultures: OPC and cortical neuronal cultures were prepared from the cortices of postnatal day P0-P1 C57BL/6J mice of both sexes, following established protocols (1, 2);(3). The single-cell suspension was divided into two tubes. One tube was treated with warm Neuronal Basal media, counted, and plated onto poly-L-lysine (PLL)-coated glass coverslips. The second tube was resuspended in glial growth medium, composed of DMEM-F12 supplemented with 10% fetal bovine serum, and placed in a PLL-coated culture flask for 8–10 days until confluent. Primary OPCs were then isolated by shaking and either co-cultured with primary neurons or plated onto poly-D-lysine-coated glass coverslips (three coverslips per condition, 2x10^6 cells per coverslip). The OPCs were allowed to attach for three days, followed by five days in differentiating media (DMEM-F12 with Sato media containing triiodothyronine and thyroxine) supplemented with various analogues and remyelinating compounds. For comparison, a negative control (vehicle, consisting of the media and ethanol mixture used to dissolve the analogues and remyelinating compounds) and a normal control (differentiating media alone) were included in the experiments.
Quantification of Mature OLs and Co-culture axon myelination: At the conclusion of the treatment period, cells were fixed and subjected to immunocytochemistry to evaluate myelin basic protein (MBP) expression, co-stained with the nuclear marker DAPI (shown in blue). […] Cell counting was performed using the ImageJ multipoint tool, and cell densities were calculated by dividing the counts by the image area (mm²). […]
To assess OL differentiation, the number of MBP-positive (MBP+) cells and process extensions exceeding the diameter of the cell body were quantified.

[10] = target: T1, full length purified human ERα (Homo sapiens, UniProt P03372); assay: competitive ligand binding assay, tritiated estradiol as tracer
T1 construct: full length purified human ERα and ERβ

[11] = target: T2, full length purified human ERβ (Homo sapiens, UniProt Q92731); assay: as above; conditions: for RBA β/α ratio: ERβ/ERα relative affinity ratio
T2 construct: full length purified human ERα and ERβ

[12] = plasma
[13] = relative binding affinity, estradiol = 100

T2 sequence (Q92731 whole entry): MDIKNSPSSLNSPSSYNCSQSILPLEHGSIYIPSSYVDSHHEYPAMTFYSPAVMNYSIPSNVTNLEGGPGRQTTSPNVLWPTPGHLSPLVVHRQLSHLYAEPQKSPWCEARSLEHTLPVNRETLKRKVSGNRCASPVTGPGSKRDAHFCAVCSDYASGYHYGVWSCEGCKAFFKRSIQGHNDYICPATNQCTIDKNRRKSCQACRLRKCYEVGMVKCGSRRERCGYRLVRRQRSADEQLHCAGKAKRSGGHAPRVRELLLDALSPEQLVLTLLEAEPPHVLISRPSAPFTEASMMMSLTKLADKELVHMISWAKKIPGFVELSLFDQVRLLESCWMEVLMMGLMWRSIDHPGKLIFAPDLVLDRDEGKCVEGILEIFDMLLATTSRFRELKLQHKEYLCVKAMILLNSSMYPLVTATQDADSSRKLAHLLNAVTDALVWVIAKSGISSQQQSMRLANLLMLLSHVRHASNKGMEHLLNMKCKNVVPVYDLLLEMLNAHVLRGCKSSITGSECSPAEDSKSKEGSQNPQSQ
Sequence of CYP3A4 (P08684 whole entry): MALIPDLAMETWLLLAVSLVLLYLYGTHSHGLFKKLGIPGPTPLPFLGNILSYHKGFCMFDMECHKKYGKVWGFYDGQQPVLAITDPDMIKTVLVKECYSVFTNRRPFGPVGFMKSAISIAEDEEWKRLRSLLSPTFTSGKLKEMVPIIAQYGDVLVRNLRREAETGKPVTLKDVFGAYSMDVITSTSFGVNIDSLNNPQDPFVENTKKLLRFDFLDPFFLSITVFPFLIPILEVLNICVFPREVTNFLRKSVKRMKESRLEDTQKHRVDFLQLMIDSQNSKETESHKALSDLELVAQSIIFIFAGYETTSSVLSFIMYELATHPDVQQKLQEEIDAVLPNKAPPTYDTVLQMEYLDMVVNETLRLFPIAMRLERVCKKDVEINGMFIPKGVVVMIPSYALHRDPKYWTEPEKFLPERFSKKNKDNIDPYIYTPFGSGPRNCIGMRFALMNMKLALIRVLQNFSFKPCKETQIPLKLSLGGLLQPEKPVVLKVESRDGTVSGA
T1 sequence (P03372 whole entry): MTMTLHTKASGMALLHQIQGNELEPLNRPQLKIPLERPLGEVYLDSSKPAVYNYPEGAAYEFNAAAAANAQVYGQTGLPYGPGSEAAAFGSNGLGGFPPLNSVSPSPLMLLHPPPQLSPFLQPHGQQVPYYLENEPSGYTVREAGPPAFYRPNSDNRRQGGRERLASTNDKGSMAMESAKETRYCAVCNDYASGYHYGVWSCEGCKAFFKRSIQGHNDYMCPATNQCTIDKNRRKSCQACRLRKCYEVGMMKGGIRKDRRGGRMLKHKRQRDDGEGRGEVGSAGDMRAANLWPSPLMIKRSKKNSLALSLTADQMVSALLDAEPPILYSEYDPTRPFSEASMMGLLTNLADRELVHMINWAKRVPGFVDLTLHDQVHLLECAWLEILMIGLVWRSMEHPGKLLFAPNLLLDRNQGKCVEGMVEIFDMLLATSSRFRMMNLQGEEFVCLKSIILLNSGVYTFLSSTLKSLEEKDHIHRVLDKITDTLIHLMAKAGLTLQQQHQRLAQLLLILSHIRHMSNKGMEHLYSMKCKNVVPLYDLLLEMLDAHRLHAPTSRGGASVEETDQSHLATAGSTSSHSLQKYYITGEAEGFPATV

Structure (SMILES): Cc1cc(O)ccc1-n1nc2ccc(O)cc2c1Cl [Compound K102, IndCl-o-Me]
- ability to remain on the rotarod (EAE mice [1]): non-significant improvement
- % Remaining at 6 hr in Human Plasma [2]: 89.39%
- Kp uu Brain Mean ([3]; 0.5 hr): 0.581
- Kp uu Uterus Mean ([3]; 0.5 hr): 0.269
- Kp uu Brain Mean ([3]; 2.0 hr): 0.333
- Kp uu Uterus Mean ([3]; 2.0 hr): 0.380
- Kp uu Brain Mean ([3]; 4.0 hr): 0.629
- Kp uu Uterus Mean ([3]; 4.0 hr): 8.681
- Kp uu Brain Mean ([3]; 8.0 hr): 0.325
- Kp uu Uterus Mean ([3]; 8.0 hr): 3.086
- K p,uu,brain Cmax [3]: 0.63
- RM/N (remyelination with cpd. vs. normal) ([4]; PO): 76%
- RM/RM-V (remyelination with cpd. vs. spontaneous remyelination without cpd) ([4]; PO): 121%
- RM/N (remyelination with cpd. vs. normal) ([4]; SC, 5 mg/kg): 94%
- RM/RM-V (remyelination with cpd. vs. spontaneous remyelination without cpd) ([4]; SC, 5 mg/kg): 149%
- CC1 + OLs compared to RM + V [4]: further increase
- CD45 immunoreactivity compared to 12wkDM [4]: small but significant decrease
- GFAP expression [4]: remained unchanged
- myelin (MBP, PLP, and MOG staining) compared to RM + V [4]: significant increase
- CXCL1 production [5]: did not affect
- CXCL10 levels compared to vehicle [5]: reduced
- certain anti-inflammatory cytokines compared to vehicle [5]: significantly lower
- pro-inflammatory cytokine levels compared to vehicle [5]: reduced
- ERG B-wave latency (EAE mice [6]): improved
- ERG A-wave and B-wave amplitude (EAE mice [6]): significant increase
- Body weight ([7]; group average): 20.124
- Uterine weight ([7]; group average): 0.055
- Uterine weight/body weight ratio ([7]; group average): 0.275
- Body weight ([7]; individual animals): 19.160 and 19.460 and 20.910 and 21.110 and 19.980
- Uterine weight ([7]; individual animals): 0.0650 and 0.0330 and 0.0810 and 0.0490
- Uterine weight/body weight ratio ([7]; individual animals): 0.3392 and 0.1696 and 0.3874 and 0.2321 and 0.2452
- uterine weight relative to body weight [7]: no increase
- VEP P1 (or N2) amplitude (EAE mice [8]): significant increase
- VEP P1 latency (EAE mice [8]): reduction
- OL processes wrapping axons [9]: significant increase
- CYP Inhibition Percentage CYP3A4-M (CYP3A4): 50.95%
- CYP Inhibition Percentage CYP3A4-T (CYP3A4; substrate Testosterone, 10 µM): 77% and 76.99%
- MBP+ OLs vs vehicle-treated wells (primary mouse OPCs): significant increase
- number of MBP+ cells vs vehicle (primary mouse OPCs): significantly increased
- RBA ERα [10]: 0.37
- RBA ERβ [11]: 24.0
- RBA β/α ratio [11]: 65

Structure (SMILES): Oc1ccc(-n2nc3ccc(O)cc3c2Cl)c(O)c1 [Compound K110, IndCl-o-OH]
- ability to remain on the rotarod (EAE mice [1]): non-significant improvement
- % Remaining at 6 hr in Human Plasma [2]: 105.99%
- Kp uu Brain Mean ([3]; 0.5 hr): 0.232
- Kp uu Uterus Mean ([3]; 0.5 hr): 0.516
- Kp uu Brain Mean ([3]; 2.0 hr): 0.802
- Kp uu Uterus Mean ([3]; 2.0 hr): 10.651
- Kp uu Brain Mean ([3]; 4.0 hr): 0.280
- Kp uu Uterus Mean ([3]; 4.0 hr): 45.849
- Kp uu Brain Mean ([3]; 8.0 hr): 0.294
- Kp uu Uterus Mean ([3]; 8.0 hr): 6.280
- K p,uu,brain Cmax ([3]; 40 mg/kg): 0.8
- RM/N (remyelination with cpd. vs. normal) ([4]; PO): 100%
- RM/RM-V (remyelination with cpd. vs. spontaneous remyelination without cpd) ([4]; PO): 127%
- RM/N (remyelination with cpd. vs. normal) ([4]; SC, 5 mg/kg): 84%
- RM/RM-V (remyelination with cpd. vs. spontaneous remyelination without cpd) ([4]; SC, 5 mg/kg): 133%
- CC1 + OLs compared to RM + V [4]: further increase
- CD45 immunoreactivity compared to 12wkDM [4]: small but significant decrease
- GFAP expression [4]: remained unchanged
- myelin (MBP, PLP, and MOG staining) compared to RM + V [4]: significant increase
- CXCL1 production [5]: did not affect
- CXCL10 levels compared to vehicle [5]: reduced
- certain anti-inflammatory cytokines compared to vehicle [5]: significantly lower
- pro-inflammatory cytokine levels compared to vehicle [5]: reduced
- ERG B-wave latency (EAE mice [6]): improved
- ERG A-wave and B-wave amplitude (EAE mice [6]): significant increase
- Body weight ([7]; group average): 15.27
- Uterine weight ([7]; group average): 0.04
- Uterine weight/body weight ratio ([7]; group average): 0.26
- Body weight ([7]; individual animals): 14.58 and 15.48 and 15.50 and 14.68 and 16.10
- Uterine weight ([7]; individual animals): 0.044 and 0.027 and 0.034 and 0.056
- Uterine weight/body weight ratio ([7]; individual animals): 0.3018 and 0.1744 and 0.2194 and 0.3815 and 0.2112
- uterine weight relative to body weight [7]: no increase
- VEP P1 (or N2) amplitude (EAE mice [8]): did not affect
- VEP P1 latency (EAE mice [8]): did reduce
- OL processes wrapping axons [9]: significant increase
- CYP Inhibition Percentage CYP3A4-M (CYP3A4): 13.95%
- Protein Binding (% Bound) Human [12]: 93.27%
- MBP+ OLs vs vehicle-treated wells (primary mouse OPCs): significant increase
- number of MBP+ cells vs vehicle (primary mouse OPCs): significantly increased
- RBA ERα [10, 13]: 0.09
- RBA β/α ratio [11]: 48
- RBA ERβ [11, 13]: 4.35
